Assay results: patent publication US20180325947A1, “USE OF MAPK INHIBITORS TO REDUCE LOSS OF HEMATOPOIETIC STEM CELLS DURING EX VIVO CULTURE AND/OR GENETIC MANIPULATION” (Children's Hospital Medical Center, priority 2015, published 2018)
“Also recorded” adds a separate entry of the source.

Tests used:
[1] = system: human CD33+ myeloid, CD19+ B-lymphoid and CD34+ HSPC progeny; test: multi-lineage reconstitution (myeloid skewing) in 1T NSG mice 24 weeks post transplantation; format: in vivo
Procedure: (§1) FIG. 2. A preclinical model for studying adult human HSC ex vivo manipulation and gene transfer and its effect on LTRP. (Panel A) Freshly isolated or thawed mobilized peripheral blood (MPB) derived CD34+ cells were utilized for the study. Two different protocols were utilized for the study where lentivirus (LV) or γ-Retrovirus (RV) mediated gene transfer was performed at indicated time points. 0 h, 18-24 h, 36-42 h, and 72-96 h indicates the total amount of time where cells were exposed in the ex vivo culture after CD34 isolation before injection into NSG mice. (Panel B) After indicated time in culture and transduction, 1 million CD34+ starting equivalent cells were transplanted per NSG mouse after TBI intravenously (primary transplant=1T). Primary human engraftment and multi-lineage reconstitution was analyzed in mice at indicated time periods after bone marrow harvest at 6 and 12 weeks (wks) from left and right femurs, and after sacrifice at 24 wks, from all bones. A portion of cells were analyzed for FACS and the rest were depleted of mouse CD45+ cells and transplanted one to one, into secondary mice (secondary transplant=2T).
Human MPB derived CD34^+ cells either fresh or thawed were cultured and transduced with lentivirus (LV) or retrovirus (RV) expressing GFP for the indicated time points. Cells were harvested and phospho-p38MAPK was detected by flow cytometry. […] Data expressed as mean±SEM from 5 independent experiments (n=12-21 mice per group). […]
Next, the multi-lineage reconstitution was analyzed at 6, 12 and 24 weeks in BM of 1T animals, both of the untransduced (GFP^−) versus transduced (GFP^+) progeny. […]

human CD34+ cells = test: total CD34+ cell number / viability, trypan blue; format: cell-based; conditions: with or without p38i
Procedure: (§2) Human CD34^+ cells were cultured and transduced as described in FIG. 13, panel A. Harvested cells were stained with trypan blue for viability, total CD34+ cell number (Panel A), fold change in percent human CD34^+ 38^− 90^+ 45RA^− 49f^+ (HSCs) (Panel B), percent annexin V^+ (apoptotic) CD34^+38^− 90^+ cells (Panel C), fold change in transduction efficiency (based on GFP marker percentage) over non-treated CD34^+38^− 90^+ cells (Panel D), fold change in MitoSOX MFI in CD34^+38^− 90^+ cells are shown (Panel E). Data represents mean±SEM. Statistics: Student's t test, […], *p<0.05, **p<0.01, ***p<0.001.

[2] = system: human HSC long term repopulating potential; test: secondary transplant (2T) in NSG mice, long term repopulating potential (LTRP); format: in vivo; conditions: for secondary engraftment potential / long term repopulating potential (LTRP): 2T NSG mice, 6 weeks, inhibitor present during ex vivo culture, all time points; for number of 2T mice with human cell engraftment (>0.01% hCD45+ cells in BM): 6 weeks post-secondary transplant
Procedure: as §1
Panel B: Number of 2T mice engrafted (>0.01% hCD45^+ cells in BM) are shown above the middle bar and those non-engrafted below.
Human MPB derived CD34^+ cells either fresh or thawed were cultured and transduced with lentivirus (LV) or retrovirus (RV) expressing GFP for the indicated time points. Cells were harvested and phospho-p38MAPK was detected by flow cytometry. Panel A: Representative histogram plot of p-p38 (number represents mean fluorescence intensity (MFI). Panel B: Fold change of p-p38 MAPK MFI (±SEM) in human CD34^+ 38^− 90^+ 45RA^− 49f^+ cells with or without p38 inhibitor (p38i). Panel C: Human CD45^+ engraftment in NSG mice with (striped bars) or without p38 inhibitor (solid bars) after 24 weeks of primary transplant. Panel D: Human engraftment in NSG mice with or without p38i after 6 weeks of secondary transplant. Engrafted mice (>0.01% CD45^+ cells in the whole bone marrow) over total mice transplanted is shown as percentage. Human CD33^+ myeloid (Panels E and F), CD19^+ B-Lymphoid (Panels G and H) and CD34^+ hematopoietic stem/progenitor cells (HSPCs) (Panels I and J) re-constitution with or without p38i (Panels E, G, and I): GFP^− untransduced; (Panels F, H & J): GFP^+ transduced in primary transplanted mice 24 weeks post transplantation are shown. Data expressed as mean±SEM from 5 independent experiments (n=12-21 mice per group). Statistics: Student's t test, *p<0.05, **p<0.01, ***p<0.001.
Engrafted mice (>0.01% CD45^+ cells in the whole bone marrow) are shown above the middle bar, engrafted/Total mice number is shown on the side. […] Data expressed as mean±SEM from 5 independent experiments (n=7-29 mice per group). […]

[3] = system: human HSCs (CD34+ 38- 90+ 45RA- 49f+); test: percent phenotypic hHSC in ex vivo cultured CD34+ cells, flow cytometry; format: cell-based; conditions: for percent hHSCs ex vivo in culture: ex vivo culture up to 72 hours
Procedure: Four different p38 inhibitors all increase the percent hHSCs ex vivo in culture studies up to 72 hours.
as §2

Cc1ccc(-n2nc(C(C)(C)C)cc2NC(=O)Nc2ccc(OCCN3CCOCC3)c3ccccc23)cc1 [BIRB-796, 1-[5-tert-butyl-2-(4-methylphenyl)pyrazol-3-yl]-3-[4-(2-morpholin-4-ylethoxy)naphthalen-1-yl]urea]
myeloid skewing phenotype (overall) ([1]; 1T mice 24 weeks post transplantation, listed as p38i): significantly revert this phenotype but only partially; also recorded: partially reverts
myeloid lineage skewing ([1]; 72-96 h RV group): some improvement
myeloid lineage skewing ([1]; HSPC transduced within the first 24 h with LV, cultures up to 72-96 h): restored to levels similar to untransduced cells or 0 h controls
total number of CD34+ cells or their viability (human CD34+ cells): no significant change
secondary engraftment potential / long term repopulating potential (LTRP) [2]: retains
secondary engraftment potential / long term repopulating potential (LTRP) ([2]; listed as p38i): retain; also recorded: restores; also recorded: rescues
number of 2T mice with human cell engraftment (>0.01% hCD45+ cells in BM) [2]: significantly increase
number of 2T mice with human cell engraftment (>0.01% hCD45+ cells in BM) ([2]; listed as Birb796): increases
human HSCs in vitro ([3]; at 400, 600 and 800 nm concentrations): appeared to increase
percent hHSCs ex vivo in culture [3]: significant increase
percent hHSCs ex vivo in culture ([3]; listed as p38i): increased
loss of stem cells during in vitro or ex vivo culture ([3]; stem cells having undergone genetic manipulation that induces a DNA double strand break): successfully reduced
